The values below come from patent publication US4269717A, “Boiler additives for oxygen scavenging” (priority 1980, dated 1981).

The conditions of series [1]: 227-239° F.; for % O2 Removal / Final O2: initial O2 40 ppb; for Oxygen scavenging activity relative to hydrazine: Table II. How it is done: A second more extensive group of potential oxygen scavengers were compared, again using a small laboratory boiler and oxygen saturated feed water containing sodium hydroxide. […] The hydrazine salts among this group are no less toxic than hydrazine and therefore were eliminated from further study. […] In addition, the carbohydrazide was preferred because it is a solid at room temperature and could therefore be used in dry formulations.
INITIAL SCREENING AT 227-239° F.

Series [2] in a line: Initial oxygen scavenger screening in laboratory boiler at 200-220° F. (Table I). How it is done: A small laboratory boiler was used to screen a number of potential oxygen scavengers. Oxygen saturated feed water which contained sodium hydroxide was used as the feed. The residence time for the treatment chemical was approximately 11 minutes. The boiler water temperature was maintained at between 200°-220° F. In these tests, 2% hydroquinone was used as the catalyst.
INITIAL SCREENING AT 200-220° F.

The nature of series [3]: Carbohydrazide vs. hydrazine in oxygen removal, once-through apparatus (Table III). The conditions noted are these: initial O2 7.4 ppm, 227-239° F., pH about 10.5. How it is done: A once-through experimental apparatus for simulating boiler water transport was utilized in this example. Water temperature in this example was maintained at about 227°-239° F. and pH at about 10.5.

A short description of series [4]: Metal passivation in experimental firerod boiler (Table IV). The conditions noted are these: 600 p.s.i., 48 hour test. The source says: Metal passivation studies were undertaken using an experimental firerod boiler under the following test conditions:
10 boiler water concentrations
40 ppm M alkalinity (as CaCO3)
A blank containing no oxygen scavenger was followed by test runs with hydrazine, carbohydrazide, and sodium sulfite.
*Tubes ranked by appearance of metal surface.

Series [5] in a line: Carbohydrazide low temperature hydrolysis (Table V). It counts as physicochemical. The conditions noted are these: for ppm Hydrazine: 100 ppm hydrazine control, pH 10.25. How it is done: Low temperature hydrolysis studies of carbohydrazide were carried out using reagent grade carbohydrazide containing approximately 2.7±0.1% hydrazine as an impurity. A 1,000 ppm carbohydrazide solution and a 100 ppm hydrazine solution were prepared with deaerated, deionized water. Half of the carbohydrazide solution was adjusted to pH 10.2 with sodium hydroxide and the other half was left at its original pH of 6.9. The solutions were poured into Nessler tubes to overflowing and sealed with stoppers fitted with hypodermic needles to allow pressure release with minimum air contact. Four samples of both of the carbohydrazide solutions and two samples of the hydrazine control were stored at varying temperatures for varying periods of time, all as reported in Table V below.

Another series in a line: Solubility in water. It counts as physicochemical.

Read-outs that look alike come from different tables or passages of the source.

As for `O=CNNC=O` [Diformohydrazide], in series [1], the “% O2 Removal” value was determined as 0% and the “Final O2” value was found to be 40 ppb.

With `COC(=O)NNC(=O)OC` [Dimethyldihydrazodicarboxylate], in series [1], the “% O2 Removal” value is reported as 50% and the “Final O2” value came to 20 ppb.

Regarding `O=C(O)NNC(=O)O` [Disodiumdihydrazodicarboxylate], in series [1], the “Oxygen scavenging activity relative to hydrazine” value was “activity comparable to hydrazine”, the “% O2 Removal” value was found to be 75% and the “Final O2” value is given as 10 ppb.

For `NNC=O` [Formohydrazide], in series [1], the “% O2 Removal” value came to 0% and the “Final O2” value was found to be 40 ppb.

For the molecule `NN.O=S(=O)(O)O` [Hydrazine sulfate, Hydrazinium sulfate, reference compound], the “Final O2” value in series [2] (dosage 500 ppb, pH 10.5, initial O2 40 ppb, 2% hydroquinone catalyst) was found to be 10 ppb. Moreover, in series [1], the “Oxygen scavenging activity relative to hydrazine” value was “activity comparable to hydrazine”, the “% O2 Removal” value worked out at 87.5% and the “Final O2” value was 5 ppb.

In the case of `NN` [Hydrazine, hydrazine, reference compound], the “% O2 Removal” value in series [1] is given as 87.5%; in series [3] (ppm scavenger/ppm O2 0.1/1), 15.4%; in series [3] (ppm scavenger/ppm O2 0.9/1), 70.5%; in series [3] (ppm scavenger/ppm O2 10.0/1) it was 99.2%. Besides, the “Final O2” value in series [1] was found to be 5 ppb; in series [3] (ppm scavenger/ppm O2 0.1/1), 6.26 ppm; in series [3] (ppm scavenger/ppm O2 0.9/1), 2.18 ppm; in series [3] (ppm scavenger/ppm O2 10.0/1), 0.06 ppm. In addition, the “Tube Rank (by appearance of metal surface)” value in series [4] (dosage 2 ppm) worked out at 3. Further, the “ppm Hydrazine” value came to 86.6 ppm in series [5] (120° F., 6 days); 87.6 ppm in series [5] (180° F., 6 days); 89.8 ppm in series [5] (Room Temp. (77° F.), 6 days); 97.4 ppm in series [5] (time 0). The “Loss of initial hydrazine concentration” value in series [5] (hydrazine control, after 6 days) is “approximately 10%”.

As for `NN.NN.O=S(O)O` [Hydrazinium sulfite, reference compound], in series [1], the “Oxygen scavenging activity relative to hydrazine” value is “activity comparable to hydrazine” and the “Final O2” value is 5 ppb.

Take `O=S([O-])[O-].[Na+].[Na+]` [Na2 SO3, sodium sulfite, reference compound]: the “Final O2” value in series [2] (dosage 400 ppb, pH 9.65, initial O2 40 ppb) was “.005 ppb”. The “Tube Rank (by appearance of metal surface)” value in series [4] (dosage 20-40 ppm residual) was found to be 2.

For the molecule `NNC(=O)C(=O)NN` [Oxalic dihydrazide], the “Solubility in water (Table II)” value in the series “Solubility in water” is “Insoluble In Water”.

Turning to Di (methylformal)diazine, in series [1], the “% O2 Removal” value is 0% and the “Final O2” value came to 40 ppb.
